# What was measured:
# [1] = pKa determination by RP-HPLC; type: physicochemical; settings: from retention factor vs pH of mobile phase, recalculated for water medium
# [2] = Lipophilicity determination by HPLC (capacity factor k / log k); type: physicochemical; settings: RP-HPLC, C18, MeOH 55%/H2O 45%
# Source text: A Waters Alliance 2695 XE HPLC separation module and a Waters Photodiode Array Detector 2996 (Waters Corp., Milford, MA, USA) were used. A Symmetry C18 5 μm, 4.6 × 250 mm, part number WAT054275 (Waters Corp., Milford, MA, USA) chromatographic column was used. The HPLC separation process was monitored by Empower 2 Chromatography Data Software, Waters 2009 (Waters Corp., Milford, MA, USA). A mixture of MeOH p.a. (55%) and H2O-HPLC–Milli-Q Grade (45%) was used as a mobile phase. The total flow of the column was 1.0 mL/min, injection volume 30 μL, column temperature 45°C, and sample temperature 10°C. The detection wavelength of 210 nm was chosen. The KI methanolic solution was used for the dead time (t D) determination. Retention times (t R) were measured in minutes. The capacity factors k were calculated using the Empower 2 Chromatography Data Software according to formula k = (t R − t D)/t D, where t R is the retention time of the solute, whereas t D denotes the dead time obtained using an unretained analyte. logk, calculated from the capacity factor k, is used as the lipophilicity index converted to logP scale.
# [3] = system: Mycobacterium avium subsp. paratuberculosis CIT03; assay: In vitro antimycobacterial evaluation (alamarBlue, MIC); type: cell-based; settings: for MIC: Mycobacterium avium, 264 h, MIC/IC90, 11 days incubation, 37°C
# Description: (§1) Clinical isolates of Mycobacterium avium subsp. paratuberculosis CIT03 and M. intracellulare were grown in Middlebrook broth (MB), supplemented with oleic-albumin-dextrose-catalase supplement (OADC, Becton Dickinson, UK) and mycobactin J (2 μg/mL). Identification of these isolates was performed using biochemical and molecular protocols. At log phase growth, the culture (10 mL) was centrifuged at 15,000 rpm/20 min using a bench top centrifuge (Model CR 4–12, Jouan Inc., UK). Following the removal of the supernatant, the pellet was washed in fresh Middlebrook 7H9GC broth and resuspended in fresh supplemented MB (10 mL). The turbidity was adjusted to match McFarland standard no. 1 (3 × 10^8 cfu) with MB broth. A further 1 : 20 dilution of the culture was then performed in MB broth. The antimicrobial susceptibility of all four mycobacterial species was investigated in a 96-well plate format. In these experiments, sterile deionised water (300 μL) was added to all outer-perimeter wells of the plates to minimize evaporation of the medium in the test wells during incubation. Each evaluated compound (100 μL) was incubated with each of the mycobacterial species (100 μL). Dilutions of each compound were prepared in duplicate. For all synthesized compounds, final concentrations ranged from 1,000 μg/mL to 8 μg/mL. All compounds were prepared in DMSO, and subsequent dilutions were made in supplemented MB. The plates were sealed with parafilm and incubated at 37°C, for 7 days in the case of M. intracellulare and 11 days in the case of M. avium paratuberculosis. Following incubation, a 10% addition of alamarBlue (AbD Serotec) was mixed with each well, and readings at 570 nm and 600 nm were taken, initially for background subtraction and subsequently after 24 h reincubation. […] For noninterfering compounds, a blue colour in the well was interpreted as an absence of growth, and a pink colour was scored as growth. The MIC was initially defined as the lowest concentration which prevented a visual colour change from blue to pink. […] The MIC/IC90 value is routinely and widely used in bacterial assays and is a standard detection limit according to the Clinical and Laboratory Standards Institute (CLSI, http://www.clsi.org/).
# [4] = system: Mycobacterium intracellulare; assay: as above; type: cell-based; settings: for MIC: Mycobacterium intracellulare, 168 h, MIC/IC90, 7 days incubation, 37°C
# Description: as §1
# spinach chloroplasts = assay: Photosynthetic electron transport (PET) in spinach chloroplasts (DCPIP photoreduction); type: biochemical, Spinacia oleracea L.; settings: DMSO 8% v/v
# Description: Chloroplasts were prepared from spinach (Spinacia oleracea L.) according to Masarovičová and Král'ová [38]. The inhibition of photosynthetic electron transport (PET) in spinach chloroplasts was determined spectrophotometrically (Genesys 6, Thermo Scientific, USA), using an artificial electron acceptor 2,6-dichlorophenol-indophenol (DCIPP) according to Král'ová et al., and the rate of photosynthetic electron transport was monitored as a photoreduction of DCPIP. The measurements were carried out in phosphate buffer (0.02 mol/L, pH 7.2) containing sucrose (0.4 mol/L), MgCl2 (0.005 mol/L), and NaCl (0.015 mol/L). The chlorophyll content was 30 mg/L in these experiments, and the samples were irradiated (~100 W/m^2 with 10 cm distance) with a halogen lamp (250 W) using a 4 cm water filter to prevent warming of the samples (suspension temperature 22°C). The studied compounds were dissolved in DMSO due to their limited water solubility, and the concentration of DMSO was constant (8% (v/v)) in control as well as in amphiphile-treated samples.
SMILES,pKa [1],Log k [2],MIC [3] [µM],MIC [4] [µM],effect on the rate of PET (in words) (spinach chloroplasts),antimycobacterial activity against M. avium subsp. paratuberculosis (in words) [3],antimycobacterial activity against M. intracellulare (in words) [4]
"COC(=O)Nc1ccc(C(=O)OCC(O)CNCCOc2ccccc2OC)cc1.Cl (stereo not shown) [Compound 19a, 2-Hydroxy-3-[2-(2-methoxyphenoxy)ethylamino]-propyl 4-(Methoxycarbonylamino)benzoate Hydrochloride]",8.82,0.3870,275,550,,,
"CCOC(=O)Nc1ccc(C(=O)OCC(O)CNCCOc2ccccc2OC)cc1.Cl (stereo not shown) [Compound 19b, 2-Hydroxy-3-[2-(2-methoxyphenoxy)ethylamino]-propyl 4-(Ethoxycarbonylamino)benzoate Hydrochloride]",8.9,0.3976,128,533,,,
"CCCOC(=O)Nc1ccc(C(=O)OCC(O)CNCCOc2ccccc2OC)cc1.Cl (stereo not shown) [Compound 19c, 2-Hydroxy-3-[2-(2-methoxyphenoxy)ethylamino]-propyl 4-(Propoxycarbonylamino)benzoate Hydrochloride]",8.67,0.4089,64,259,relatively strong PET stimulation,,
"CCCCOC(=O)Nc1ccc(C(=O)OCC(O)CNCCOc2ccccc2OC)cc1.Cl (stereo not shown) [Compound 19d, 2-Hydroxy-3-[2-(2-methoxyphenoxy)ethylamino]-propyl 4-(Butoxycarbonylamino)benzoate Hydrochloride]",8.73,0.4228,62,201,significantly stimulated the rate of PET,,
"COC(=O)Nc1ccc(C(=O)OCC(O)CNCCOc2ccc(OC)cc2)cc1.Cl (stereo not shown) [Compound 20a, 2-Hydroxy-3-[2-(4-methoxyphenoxy)ethylamino]-propyl 4-(Methoxycarbonylamino)benzoate Hydrochloride]",8.25,0.3881,550,550,,,
"CCOC(=O)Nc1ccc(C(=O)OCC(O)CNCCOc2ccc(OC)cc2)cc1.Cl (stereo not shown) [Compound 20b, 2-Hydroxy-3-[2-(4-methoxyphenoxy)ethylamino]-propyl 4-(Ethoxycarbonylamino)benzoate Hydrochloride]",8.23,0.3999,533,533,,,
"CCCOC(=O)Nc1ccc(C(=O)OCC(O)CNCCOc2ccc(OC)cc2)cc1.Cl (stereo not shown) [Compound 20c, 2-Hydroxy-3-[2-(4-methoxyphenoxy)ethylamino]-propyl 4-(Propoxycarbonylamino)benzoate Hydrochloride]",7.99,0.4108,259,259,relatively strong PET stimulation,,
"COC(=O)Nc1ccc(C(=O)OCC(O)CNCCOc2c(OC)cccc2OC)cc1.Cl (stereo not shown) [Compound 21a, 2-Hydroxy-3-[2-(2,6-dimethoxyphenoxy)ethylamino]-propyl 4-(Methoxycarbonylamino)benzoate Hydrochloride]",9.14,0.3865,516,516,,,
"CCOC(=O)Nc1ccc(C(=O)OCC(O)CNCCOc2c(OC)cccc2OC)cc1.Cl (stereo not shown) [Compound 21b, 2-Hydroxy-3-[2-(2,6-dimethoxyphenoxy)ethylamino]-propyl 4-(Ethoxycarbonylamino)benzoate Hydrochloride]",8.88,0.3956,501,501,,,
"CCCOC(=O)Nc1ccc(C(=O)OCC(O)CNCCOc2c(OC)cccc2OC)cc1.Cl (stereo not shown) [Compound 21c, 2-Hydroxy-3-[2-(2,6-dimethoxyphenoxy)ethylamino]-propyl 4-(Propoxycarbonylamino)benzoate Hydrochloride]",8.9,0.4052,117,487,,,
"COC(=O)Nc1ccc(C(=O)OCC(O)CNCCOc2ccccc2F)cc1.Cl (stereo not shown) [Compound 22a, 3-[2-(2-Fluorophenoxy)ethylamino]-2-hydroxypropyl 4-(Methoxycarbonylamino)benzoate Hydrochloride]",7.98,0.3904,564,564,,,
"CCOC(=O)Nc1ccc(C(=O)OCC(O)CNCCOc2ccccc2F)cc1.Cl (stereo not shown) [Compound 22b, 3-[2-(2-Fluorophenoxy)ethylamino]-2-hydroxypropyl 4-(Ethoxycarbonylamino)benzoate Hydrochloride]",7.99,0.4011,547,547,,,
"CCCOC(=O)Nc1ccc(C(=O)OCC(O)CNCCOc2ccccc2F)cc1.Cl (stereo not shown) [Compound 22c, 3-[2-(2-Fluorophenoxy)ethylamino]-2-hydroxypropyl 4-(Propoxycarbonylamino)benzoate Hydrochloride]",7.97,0.4206,265,265,,,
"COC(=O)Nc1ccc(C(=O)OCC(O)CNCCOc2ccc(F)cc2)cc1.Cl (stereo not shown) [Compound 23a, 3-[2-(4-Fluorophenoxy)ethylamino]-2-hydroxypropyl 4-(Methoxycarbonylamino)benzoate Hydrochloride]",8.04,0.3915,564,564,,,
"CCOC(=O)Nc1ccc(C(=O)OCC(O)CNCCOc2ccc(F)cc2)cc1.Cl (stereo not shown) [Compound 23b, 3-[2-(4-Fluorophenoxy)ethylamino]-2-hydroxypropyl 4-(Ethoxycarbonylamino)benzoate Hydrochloride]",8.09,0.4032,547,547,,,
"CCCOC(=O)Nc1ccc(C(=O)OCC(O)CNCCOc2ccc(F)cc2)cc1.Cl (stereo not shown) [Compound 23c, 3-[2-(4-Fluorophenoxy)ethylamino]-2-hydroxypropyl 4-(Propoxycarbonylamino)benzoate Hydrochloride]",8.16,0.4228,66,265,,,
"NNC(=O)c1ccncc1 [INH, isoniazid, reference compound]",,,> 1820,> 729,,inactive,inactive
"NC(=O)c1cnccn1 [PZA, pyrazinamide, reference compound]",,,> 2030,> 812,,inactive,inactive
"CO[C@H]1/C=C/O[C@@]2(C)Oc3c(C)c(O)c4c(O)c(c(/C=N/N5CCN(C)CC5)c(O)c4c3C2=O)NC(=O)/C(C)=C\C=C\[C@H](C)[C@H](O)[C@@H](C)[C@@H](O)[C@@H](C)[C@H](OC(C)=O)[C@@H]1C [RIF, rifampicin, reference compound]",,,> 109,,,,
